ChEMBL document CHEMBL4229497, “Design and synthesis of benzofuro[3,2-b]pyridin-2(1H)-one derivatives as anti-leukemia agents by inhibiting Btk and PI3Kδ” (Bioorg Med Chem, 2018)
The source made the active and inactive calls. No cut-off for these calls is given here.

Experiments:
[1] = test system: HL-60; test: Antiproliferative activity against human HL60 cells at 40 uM after 48 hrs by MTT assay relative to control; type: functional
[2] = test system: Raji; test: Antiproliferative activity against human Raji cells at 40 uM after 48 hrs by MTT assay relative to control; type: functional
[3] = test system: K562; test: Antiproliferative activity against human K562 cells at 40 uM after 48 hrs by MTT assay relative to control; type: functional
[4] = test system: HL-60; test: Antiproliferative activity against human HL60 cells after 48 hrs by MTT assay; type: functional, cell-based; conditions: HL-60, 48 h
[5] = test system: K562; test: Antiproliferative activity against human K562 cells after 48 hrs by MTT assay; type: functional, cell-based; conditions: K562, 48 h
[6] = target: PI3-kinase p110-delta/p85-alpha (Homo sapiens) (UniProt P27986+O00329); test: Inhibition of recombinant human full length N-terminal His-tagged PI3K p110delta/p85alpha at 200 nM using lipid substrate after 60 mins by ADP-Glo assay relative to control; type: protein-complex assay
[7] = test system: Raji; test: Antiproliferative activity against human Raji cells after 48 hrs by MTT assay; type: functional, cell-based
[8] = test system: K562; test: Inhibition of PI3K/Akt/mTOR pathway in human K562 cells assessed as reduction in Akt phosphorylation at Ser-473 residue at 1 uM after 24 hrs by Western blot analysis; type: cell-based
[9] = target: Tyrosine-protein kinase BTK (Homo sapiens, UniProt Q06187); test: Inhibition of recombinant full length human N-terminal His tagged BTK expressed in baculovirus infected Sf9 cells using poly (4:1 Glu, Tyr) as substrate after 60 mins by ADP-Glo assay
Chain of Tyrosine-protein kinase BTK (Q06187 whole entry, canonical isoform): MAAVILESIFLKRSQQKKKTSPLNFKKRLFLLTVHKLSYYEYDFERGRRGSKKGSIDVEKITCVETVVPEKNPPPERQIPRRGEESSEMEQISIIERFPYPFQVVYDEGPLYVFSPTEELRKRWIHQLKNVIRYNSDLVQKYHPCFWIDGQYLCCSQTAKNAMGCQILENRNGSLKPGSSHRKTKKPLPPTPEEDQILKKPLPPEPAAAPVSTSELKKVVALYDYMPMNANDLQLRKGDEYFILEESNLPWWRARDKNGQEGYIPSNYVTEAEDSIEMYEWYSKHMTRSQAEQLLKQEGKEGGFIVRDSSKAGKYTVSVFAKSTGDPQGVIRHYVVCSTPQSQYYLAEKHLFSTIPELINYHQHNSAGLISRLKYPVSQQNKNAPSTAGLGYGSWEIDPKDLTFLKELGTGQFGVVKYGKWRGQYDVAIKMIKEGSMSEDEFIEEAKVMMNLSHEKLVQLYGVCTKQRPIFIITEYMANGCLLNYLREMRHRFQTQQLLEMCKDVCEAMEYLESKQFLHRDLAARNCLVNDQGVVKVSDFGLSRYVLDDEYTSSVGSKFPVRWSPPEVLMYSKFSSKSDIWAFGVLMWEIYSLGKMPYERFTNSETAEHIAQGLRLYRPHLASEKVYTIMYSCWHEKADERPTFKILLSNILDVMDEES

[10] = target: T1, Phosphatidylinositol 4,5-bisphosphate 3-kinase catalytic subunit gamma isoform (Homo sapiens, UniProt P48736); test: Inhibition of PI3Kgamma (unknown origin)
T1 sequence (P48736 whole entry, canonical isoform): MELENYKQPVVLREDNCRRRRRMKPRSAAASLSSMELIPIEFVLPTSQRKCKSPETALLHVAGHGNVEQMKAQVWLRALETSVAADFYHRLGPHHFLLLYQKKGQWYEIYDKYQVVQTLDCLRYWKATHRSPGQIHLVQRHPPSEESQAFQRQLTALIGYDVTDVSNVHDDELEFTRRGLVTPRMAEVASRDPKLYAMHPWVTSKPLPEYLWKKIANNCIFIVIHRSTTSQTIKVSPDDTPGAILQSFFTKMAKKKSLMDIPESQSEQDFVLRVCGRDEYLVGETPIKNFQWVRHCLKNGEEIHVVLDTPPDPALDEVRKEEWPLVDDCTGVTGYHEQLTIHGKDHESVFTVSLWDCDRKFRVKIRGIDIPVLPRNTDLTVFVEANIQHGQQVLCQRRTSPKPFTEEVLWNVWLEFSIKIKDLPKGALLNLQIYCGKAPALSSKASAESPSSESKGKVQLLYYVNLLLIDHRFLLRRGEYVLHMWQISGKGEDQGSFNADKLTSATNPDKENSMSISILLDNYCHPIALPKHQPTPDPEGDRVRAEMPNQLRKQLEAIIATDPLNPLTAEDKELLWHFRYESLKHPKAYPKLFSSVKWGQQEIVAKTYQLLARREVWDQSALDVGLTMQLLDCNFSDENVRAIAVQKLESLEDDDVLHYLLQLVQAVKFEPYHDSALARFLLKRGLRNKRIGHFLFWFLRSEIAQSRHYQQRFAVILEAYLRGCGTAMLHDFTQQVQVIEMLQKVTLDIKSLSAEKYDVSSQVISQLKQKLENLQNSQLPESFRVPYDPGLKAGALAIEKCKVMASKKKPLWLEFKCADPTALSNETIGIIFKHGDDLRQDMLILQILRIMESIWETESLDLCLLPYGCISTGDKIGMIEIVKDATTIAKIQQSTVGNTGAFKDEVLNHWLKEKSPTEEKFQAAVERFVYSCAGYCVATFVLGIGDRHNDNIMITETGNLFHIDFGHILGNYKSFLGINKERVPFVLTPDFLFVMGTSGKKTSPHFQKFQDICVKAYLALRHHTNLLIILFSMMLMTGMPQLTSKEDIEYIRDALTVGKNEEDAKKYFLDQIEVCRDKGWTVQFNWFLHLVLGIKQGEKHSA

[11] = target: Phosphatidylinositol 4,5-bisphosphate 3-kinase catalytic subunit beta isoform (Homo sapiens, UniProt P42338); test: Inhibition of PI3Kbeta (unknown origin)
Chain of Phosphatidylinositol 4,5-bisphosphate 3-kinase catalytic subunit beta isoform (P42338 whole entry, canonical isoform): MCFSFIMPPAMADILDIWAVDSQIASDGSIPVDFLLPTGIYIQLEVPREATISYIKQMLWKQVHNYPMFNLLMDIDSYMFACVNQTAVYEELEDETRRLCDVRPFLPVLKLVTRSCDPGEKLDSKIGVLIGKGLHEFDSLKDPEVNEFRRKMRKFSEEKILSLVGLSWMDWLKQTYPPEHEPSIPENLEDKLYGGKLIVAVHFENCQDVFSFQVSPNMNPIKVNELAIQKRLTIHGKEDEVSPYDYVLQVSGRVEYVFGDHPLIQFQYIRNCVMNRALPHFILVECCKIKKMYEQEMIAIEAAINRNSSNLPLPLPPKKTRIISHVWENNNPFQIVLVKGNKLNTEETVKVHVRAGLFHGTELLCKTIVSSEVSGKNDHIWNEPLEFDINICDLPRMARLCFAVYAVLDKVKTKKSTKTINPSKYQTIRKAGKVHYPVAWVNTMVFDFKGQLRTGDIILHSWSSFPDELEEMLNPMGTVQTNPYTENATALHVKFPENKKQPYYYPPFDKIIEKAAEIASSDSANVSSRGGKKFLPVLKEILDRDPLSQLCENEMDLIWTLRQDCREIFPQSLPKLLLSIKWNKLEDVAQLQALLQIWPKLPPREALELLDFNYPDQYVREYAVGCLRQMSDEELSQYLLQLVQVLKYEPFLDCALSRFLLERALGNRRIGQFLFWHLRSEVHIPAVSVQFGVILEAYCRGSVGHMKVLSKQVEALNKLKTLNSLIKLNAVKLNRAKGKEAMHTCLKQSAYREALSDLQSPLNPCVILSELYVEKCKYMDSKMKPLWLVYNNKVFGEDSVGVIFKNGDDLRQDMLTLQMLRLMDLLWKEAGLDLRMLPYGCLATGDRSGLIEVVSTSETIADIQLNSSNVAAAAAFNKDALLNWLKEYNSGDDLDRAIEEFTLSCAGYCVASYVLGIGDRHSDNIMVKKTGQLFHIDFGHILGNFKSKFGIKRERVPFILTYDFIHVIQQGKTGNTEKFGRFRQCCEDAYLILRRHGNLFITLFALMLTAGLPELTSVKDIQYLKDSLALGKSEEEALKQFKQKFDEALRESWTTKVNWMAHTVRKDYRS

[12] = target: Phosphatidylinositol 4,5-bisphosphate 3-kinase catalytic subunit alpha isoform (Homo sapiens, UniProt P42336); test: Inhibition of PI3Kalpha (unknown origin)
Chain of Phosphatidylinositol 4,5-bisphosphate 3-kinase catalytic subunit alpha isoform (P42336 whole entry, canonical isoform): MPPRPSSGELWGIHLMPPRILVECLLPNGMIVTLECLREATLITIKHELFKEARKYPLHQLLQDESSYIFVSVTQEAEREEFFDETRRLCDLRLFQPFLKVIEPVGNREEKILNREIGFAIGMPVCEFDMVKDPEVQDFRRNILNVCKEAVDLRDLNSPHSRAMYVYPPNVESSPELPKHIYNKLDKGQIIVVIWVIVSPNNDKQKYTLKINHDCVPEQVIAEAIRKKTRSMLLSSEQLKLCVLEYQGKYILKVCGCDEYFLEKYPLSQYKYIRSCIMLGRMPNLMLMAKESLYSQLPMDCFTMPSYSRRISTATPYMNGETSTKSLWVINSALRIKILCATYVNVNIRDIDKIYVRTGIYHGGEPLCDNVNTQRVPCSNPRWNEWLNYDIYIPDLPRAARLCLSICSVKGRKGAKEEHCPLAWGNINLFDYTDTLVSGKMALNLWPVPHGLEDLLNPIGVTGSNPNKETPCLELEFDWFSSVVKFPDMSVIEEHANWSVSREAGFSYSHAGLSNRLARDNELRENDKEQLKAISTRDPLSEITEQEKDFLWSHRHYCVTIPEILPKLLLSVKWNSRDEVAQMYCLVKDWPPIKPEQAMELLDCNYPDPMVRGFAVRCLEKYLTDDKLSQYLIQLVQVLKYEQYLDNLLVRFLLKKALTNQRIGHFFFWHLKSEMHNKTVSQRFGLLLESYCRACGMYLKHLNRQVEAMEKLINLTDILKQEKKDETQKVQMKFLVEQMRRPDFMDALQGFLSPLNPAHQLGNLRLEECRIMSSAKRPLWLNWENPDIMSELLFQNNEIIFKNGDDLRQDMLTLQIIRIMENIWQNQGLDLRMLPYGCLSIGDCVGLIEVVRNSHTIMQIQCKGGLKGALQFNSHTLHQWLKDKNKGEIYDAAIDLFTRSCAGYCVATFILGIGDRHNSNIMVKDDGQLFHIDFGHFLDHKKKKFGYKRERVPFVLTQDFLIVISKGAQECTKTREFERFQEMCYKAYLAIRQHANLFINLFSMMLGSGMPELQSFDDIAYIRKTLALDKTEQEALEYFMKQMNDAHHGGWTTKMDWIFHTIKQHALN

[13] = target: Serine/threonine-protein kinase mTOR (Homo sapiens, UniProt P42345); test: Inhibition of recombinant human N-terminal FLAG-tagged mTOR (1362-end residues)
[14] = target: PI3K p110 beta/p85 alpha (Homo sapiens, UniProt P42338); test: Inhibition of recombinant full length human N-terminal His6-tagged PI3K p110beta/p85alpha expressed in baculovirus infected Sf21 cells using lipid substrate after 60 mins by ADP-Glo assay
Chain of PI3K p110 beta/p85 alpha (P27986 whole entry, canonical isoform): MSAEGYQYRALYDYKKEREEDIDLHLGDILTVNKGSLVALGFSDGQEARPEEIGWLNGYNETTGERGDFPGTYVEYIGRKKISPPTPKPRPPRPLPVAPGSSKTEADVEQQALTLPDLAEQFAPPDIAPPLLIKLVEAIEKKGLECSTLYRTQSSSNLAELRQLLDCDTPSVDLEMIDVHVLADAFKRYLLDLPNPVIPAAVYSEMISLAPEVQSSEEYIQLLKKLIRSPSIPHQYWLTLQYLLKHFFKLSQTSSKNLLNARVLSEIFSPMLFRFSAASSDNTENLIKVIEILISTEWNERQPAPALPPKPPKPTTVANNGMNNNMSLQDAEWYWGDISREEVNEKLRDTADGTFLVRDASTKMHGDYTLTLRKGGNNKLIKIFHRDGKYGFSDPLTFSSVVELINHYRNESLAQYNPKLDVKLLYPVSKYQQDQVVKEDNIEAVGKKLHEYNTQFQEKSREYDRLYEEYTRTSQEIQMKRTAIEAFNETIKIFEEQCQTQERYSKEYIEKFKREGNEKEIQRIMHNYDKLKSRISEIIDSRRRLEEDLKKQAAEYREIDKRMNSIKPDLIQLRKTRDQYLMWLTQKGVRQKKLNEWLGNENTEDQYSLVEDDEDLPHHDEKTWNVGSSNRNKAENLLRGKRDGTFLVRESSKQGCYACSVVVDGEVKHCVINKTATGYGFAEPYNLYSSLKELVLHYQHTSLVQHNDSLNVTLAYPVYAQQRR
Chain of PI3K p110 beta/p85 alpha (P42338 whole entry, canonical isoform): as the sequence (P42338 whole entry, canonical isoform) above

[15] = target: T1, Phosphatidylinositol 4,5-bisphosphate 3-kinase catalytic subunit gamma isoform; test: Inhibition of recombinant human full length His-tagged PI3K p110gamma expressed in baculovirus expression system using lipid substrate after 60 mins by ADP-Glo assay
[16] = target: PI3-kinase p110-alpha/p85-alpha (Homo sapiens, UniProt P42336); test: Inhibition of recombinant human full length His-tagged PI3K p110alpha/p85alpha expressed in baculovirus expression system using lipid substrate after 60 mins by ADP-Glo assay
Chain of PI3-kinase p110-alpha/p85-alpha (P27986 whole entry): as the sequence (P27986 whole entry, canonical isoform) above
Chain of PI3-kinase p110-alpha/p85-alpha (P42336 whole entry): as the sequence (P42336 whole entry, canonical isoform) above

[17] = target: PI3-kinase p110-delta/p85-alpha (Homo sapiens, UniProt O00329); test: Inhibition of recombinant human full length N-terminal His-tagged PI3K p110delta/p85alpha using lipid substrate after 60 mins by ADP-Glo assay; type: protein-complex assay
[18] = Inhibition of PI3K (unknown origin); parameters: species or system Homo sapiens

| Structure (SMILES) | IC50 [4] [µM] | IC50 [5] [µM] | inhibition [6] | IC50 [7] [µM] | also measured |
| --- | --- | --- | --- | --- | --- |
| C=CC(=O)Nc1ccc(-n2c(=O)ccc3oc4ccc(-c5ccc(C(=O)O)cc5)cc4c32)cc1 | – | – | – | – | Activity [1]: 22.2%; Activity [2]: 38%; Activity [3]: inactive |
| C=CC(=O)Nc1ccc(-n2c(=O)ccc3oc4ccc(-c5ccc(O)cc5)cc4c32)cc1 | 3.9 | 5.7 | 4.2% | 3.9 | – |
| C=CC(=O)Nc1ccc(-n2c(=O)ccc3oc4ccc(-c5cnn(C)c5)cc4c32)cc1 | 12.6 | 9.6 | 4.8% | 2.4 | Reduction in Akt Ser-473 phosphorylation [8]: Active; IC50 [9]: 0.217 µM |
| CCOC(=O)CNc1ccc(-n2c(=O)ccc3oc4ccc(-c5ccc(OC)nc5)cc4c32)cc1 | – | – | – | – | Activity [1]: 46%; Activity [2]: inactive; Activity [3]: 29.4% |
| COc1ccc(-c2ccc3oc4ccc(=O)n(-c5ccc(NC(=O)CN6CCCCC6)cc5)c4c3c2)cn1 | 4.9 | 2.6 | inactive | 8.01 | Reduction in Akt Ser-473 phosphorylation [8]: Active; IC50 [9]: 0.106 µM |
| COc1ccc(-c2ccc3ncc4c(c3c2)n(-c2ccc(N3CCNCC3)c(C(F)(F)F)c2)c(=O)n4C)cn1 [BGT-226 FREE BASE] | – | – | – | – | IC50 [10]: 0.038 µM; IC50 [11]: 0.063 µM; IC50 [12]: 0.004 µM |
| COc1ccc(-c2ccc3oc4ccc(=O)n(-c5ccc([N+](=O)[O-])cc5)c4c3c2)cn1 | – | – | – | – | Activity [1]: inactive; Activity [2]: inactive; Activity [3]: 28.8% |
| COc1ccc(-c2ccc3oc4ccc(=O)n(-c5ccc(NC(=O)CN6CCNCC6)cc5)c4c3c2)cn1 | 5.5 | 1.3 | inactive | 5.84 | Reduction in Akt Ser-473 phosphorylation [8]: Active |
| COc1ccc(-c2ccc3oc4ccc(=O)n(-c5ccc(NC(=O)C(F)(F)F)cc5)c4c3c2)cn1 | – | 17 | – | – | Activity [1]: 35.4%; Activity [2]: 10% |
| COc1ccc(-c2ccc3oc4ccc(=O)n(-c5ccc(NS(C)(=O)=O)cc5)c4c3c2)cn1 | 15.5 | 16.2 | – | 16.7 | – |
| CCN(CC)CC(=O)Nc1ccc(-n2c(=O)ccc3oc4ccc(-c5ccc(OC)nc5)cc4c32)cc1 | 8.4 | 5.9 | – | 15.3 | – |
| COc1ccc(-c2ccc3oc4ccc(=O)n(-c5ccc(NC(=O)CN6CCCC6)cc5)c4c3c2)cn1 | 5.4 | 6.5 | inactive | 11.3 | IC50 [9]: 0.183 µM |
| C=CC(=O)Nc1ccc(-n2c(=O)ccc3oc4ccc(-c5ccc(OC)cc5)cc4c32)cc1 | – | – | – | – | Activity [2]: inactive; Activity [3]: 28.3% |
| C=CC(=O)N1CCC[C@@H](n2nc(-c3ccc(Oc4ccccc4)cc3)c3c(N)ncnc32)C1 [IBRUTINIB] | 8 | 7.5 | – | 14.2 | – |
| COc1ccc(-c2ccc3oc4ccc(=O)n(-c5ccc(NC(C)=O)cc5)c4c3c2)cn1 | – | – | – | 39 | Activity [3]: 47.5% |
| C=CC(=O)Nc1ccc(-n2c(=O)ccc3oc4ccc(-c5cccc([N+](=O)[O-])c5)cc4c32)cc1 | 28.2 | – | – | 25 | Activity [3]: 39% |
| COc1ccc(-c2ccc3oc4ccc(=O)n(-c5ccc(NC(=O)CN(C)C)cc5)c4c3c2)cn1 | 4 | 4.1 | inactive | 12.8 | Reduction in Akt Ser-473 phosphorylation [8]: Active; IC50 [9]: 0.237 µM |
| COc1ccc(-c2ccc3oc4ccc(=O)n(-c5ccc(N)cc5)c4c3c2)cn1 | – | – | – | – | Activity [1]: 21.5%; Activity [2]: 41.5%; Activity [3]: 17.6% |
| C=CC(=O)Nc1ccc(-n2c(=O)ccc3oc4ccc(-c5ccc(OC)nc5)cc4c32)cc1 | 17.9 | 31 | inactive | – | Activity [2]: 35%; Reduction in Akt Ser-473 phosphorylation [8]: Active |
| COc1ccc(-c2ccc3oc4ccc(=O)n(-c5ccc(NC(=O)CN6CCOCC6)cc5)c4c3c2)cn1 | 4 | 10 | 11.6% | 13.2 | IC50 [9]: 0.2 µM |
| COc1ccc(-c2ccc3oc4ccc(=O)n(-c5ccc(NC(=O)CN6CCN(C)CC6)cc5)c4c3c2)cn1 | 3.2 | 4.7 | inactive | 9.72 | IC50 [9]: 0.139 µM |
| CNCC(=O)Nc1ccc(-n2c(=O)ccc3oc4ccc(-c5ccc(OC)nc5)cc4c32)cc1 | 3.2 | 3.5 | – | 6.26 | – |
| COc1ccc(-c2ccc3oc4ccc(=O)n(-c5ccc(NCC(=O)O)cc5)c4c3c2)cn1 | 12.7 | – | – | 39.5 | Activity [3]: 46% |
| C=CC(=O)Nc1ccc(-n2c(=O)ccc3oc4ccc(-c5cccnc5)cc4c32)cc1 | 4.2 | 11.1 | 45.8% | 5.2 | IC50 [13]: 0.228 µM; IC50 [14]: 0.838 µM; Reduction in Akt Ser-473 phosphorylation [8]: Active; IC50 [15]: 0.684 µM; IC50 [16]: 0.254 µM; IC50 [17]: 0.275 µM; IC50 [9]: 0.136 µM |
| C=CC(=O)Nc1ccc(-n2c(=O)ccc3oc4ccc(-c5cccc6[nH]ccc56)cc4c32)cc1 | 7.3 | 10.2 | – | 15.7 | – |
| Cn1c(=O)n(-c2ccc(C(C)(C)C#N)cc2)c2c3cc(-c4cnc5ccccc5c4)ccc3ncc21 [DACTOLISIB] | 1 | 5.7 | 64.4% | 4.3 | Reduction in Akt Ser-473 phosphorylation [8]: Active |
| C=CC(=O)Nc1ccc(-n2c(=O)ccc3oc4ccc(-c5cccc(N)c5)cc4c32)cc1 | 10 | 6.9 | inactive | 5.3 | – |
| C=CC(=O)N1CCc2ccc(-n3c(=O)ccc4cnc5ccc(-c6cnn(C)c6)cc5c43)cc21 | – | – | – | – | IC50 [18]: 0.69 µM |
